What was measured:
PCSK9 [1] = target: T1, PCSK9 (Homo sapiens, UniProt Q8NBP7); experiment: Fluorescent-LDL uptake analysis by flow cytometric analysis; format: cell-based
T1 construct: purchased Cayman Chemical 20631
Experimental: Cells, such as HuH7, FL83B, or a cell line transfected with a short-hairpin PCSK9 knockdown sequence such as HuH7/shPCSK9 or FL83B/shPCSK9 were plated and cultured at 37° C. for 12-24 h. Culture media was removed and replaced with fresh lipoprotein-depleted culture media supplemented with 5 μg/mL of fluorescently labeled LDL or lipoprotein-depleted culture media supplemented with 5 μg/mL of fluorescently labeled LDL plus a concentration of recombinant PCSK9 (for example 5 μg/mL recombinant PCSK9; Cayman Chemical, Cat. #20631). Examples of fluorescently labeled LDL include: DiI-LDL (Kalen Biomedical), or LDL conjugated to Dylight (e.g., LDL-Dylight 488, or LDL-Dylight 550 (Cayman Chemical, Cat. #10011229)). Lipoprotein-depleted culture media was composed of DMEM (Invitrogen) with 10% lipoprotein-depleted fetal bovine serum (Kalen Biomedical) and supplemented with penicillin-streptomycin (Life Technologies). Cells were dosed with small molecule test compounds at doses ranging from 0 nM to 100 μM, following a protocol adapted from Benjannet et al., “Effects of the prosegment and pH on the activity of PCSK9: evidence for additional processing events” J Biol Chem. 285(52):40965-40978 (2010), which is incorporated by reference in its entirety.
Following an incubation period of specified length, such as 16 hours, the lipoprotein-depleted media was removed and cells rinsed three times with a rinse solution (Dulbecco's phosphate buffered saline (D-PBS, Life Technologies), supplemented with 0.5% bovine serum albumin (BSA, Sigma) and 1 g/L glucose (Sigma)). The fluid was then removed, and cells are released from the plate using TrypLE Express (Life Technologies) per manufacturer's recommended procedures, such as incubation for 5-10 minutes at 37° C. The TyrpLE-Cell suspension was then transferred to 15 mL conical tubes, volume was increased to 2 mL with D-PBS supplemented with 0.5% BSA, and […], and the tubes were centrifuged at 250×gravity for 10 minutes. Following centrifugation, the supernatant was aspirated and the cell pellet was resuspended in 300 μL PBS and counterstained with 4′,6-diamidino-2-phenylindole (DAPI, Cayman Chemical) as a cell viability marker, other cell viability markers such as 7-aminoactinomycin D (7AAD, Life Technologies) have also been described in the art.
(§1) Cells were analyzed by for both 7AAD (dead cells) and fluorescent LDL in live cells using a flow cytometer per the manufacturer's operating manual. Cells incubated with small molecule compounds that are inhibitors of PCSK9 will be expected to show increased amounts of LDL fluorescence, relative to control (no compound) specimens, and cells incubated with small molecule compounds that are activators of PCSK9 will be expected to show decreased amounts of LDL fluorescence relative to control (no compound) specimens.
The LDL-uptake EC50 is provided as follows: +++: <0.5 μM; ++: 0.5-1μM; +: >1 μM.

PCSK9 [2] = target: T1, PCSK9; experiment: LDLR flow cytometric analysis (LDLR recovery in cells treated with recombinant PCSK9); format: cell-based
Experimental: LDLR levels were measured using flow cytometry or fluorescence activated cell sorting (FACS) using protocols adapted from Benjannet et al., “Effects of the prosegment and pH on the activity of PCSK9: evidence for additional processing events” J Biol Chem. 285(52): 40965-40978 (2010) and “Composition and Methods of Use of Small Molecules as Binding Ligands for the Modulation of Proprotein Convertase Subtilisin/Kexin Type 9 (PCSK9) Protein Activity” (WO2016029037), which are incorporated by reference in their entirety.
Cells, such as HepG2, HuH7, FL83B, or a cell line transfected with a short-hairpin PCSK9 knockdown sequence such as HepG2/shPCSK9, HuH7/shPCSK9, or FL83B/shPCSK9 were cultured in media composed of complete, high glucose DMEM (Invitrogen) with 10% fetal bovine serum (Life Technologies), supplemented with penicillin-streptomycin (Life Technologies). Cells were plated in a 24-well plate, at 125 k cells/well, and cultured at 37° C. for 12-24 h. Culture media was removed and replaced with fresh culture media or culture media plus a predetermined amount of recombinant PCSK9 (for example, a final PCSK9 concentration of 5 μg/mL; Cayman Chemical, Ann Arbor, Mich., Catalog #20631). Wells evaluating test compounds were dosed with concentrations ranging from 0 nM to 100 μM.
Following an incubation period of 4-6 hours at 37° C., the media was removed and the cells rinsed by adding 0.5 ml of complete D-PBS (i.e., Dulbecco's phosphate buffered saline (D-PBS, Life Technologies) supplemented with 0.5% bovine serum albumin (BSA, Sigma) and 1 g/L glucose (Sigma)). The wash media was carefully aspirated, and cells released from the plate using 200 μL of TrypLE Express (Life Technologies) by incubating for 5-10 minutes at 37° C. The TrypLE-Cell suspension was inactivated by adding 100 μL of Fetal Bovine Serum, transferred to a v-bottom plate, and centrifuged at 250×gravity for 5 minutes. Following centrifugation, the supernatant was aspirated and the cell pellet is resuspended in 100 μL of complete D-PBS, and centrifuged at 250×gravity for 5 minutes. Following centrifugation, the supernatant was aspirated and the cell pellet was resuspended in 100 μL of antibody staining solution (600 μL of anti-LDLr-PE in complete D-PBS) and incubated on ice, protected from light, for 30 minutes. The cells were then pelleted by centrifugation, resuspended in 100 μL of 4′,6-Diamidino-2-phenylindole (DAPI, Cayman Chemical) or 7-aminoactinomycin D (7AAD, Life Technologies) staining solution to measure cell viability.
as §1, with “analyzed” for “analyzed by”, “cell viability marker” for “7AAD”, “LDLR” for “fluorescent LDL”, “LDLR,” for “LDL fluorescence,”, “LDLR” for “LDL fluorescence”
The percentage recovery in the LDLR assay at 10 μM concentration is provided as follows: +++: >80% recovery; ++: 40-80% recovery; +: 0-40% recovery.
The LDL-R EC50 is provided as follows: +++: <1; ++: 1 μM-5 μM; +: >5 μM.

[3] = Microsomal stability analysis, rat; format: in vitro ADME; settings: pH 7.4; rat liver microsomes, 1 μM test compound; read-out: Microsomal Stability t1/2
Experimental: (§2) Microsomal stability was determined as follows:
(§3) The assay was carried out in 96-well microtiter plates at 37° C. Reaction mixtures (25 μL) contained a final concentration of 1 μM test compound, 0.5 mg/mL liver microsomes protein, and 1 mM NADPH and/or 1 mM UDPGA (with alamethicin) in 100 mM potassium phosphate, pH 7.4 buffer with 3 mM MgCl2. At each of the time points (for example, 0, 15, 30, and 60 minutes), 150 μL of quench solution (100% acetonitrile with 0.1% formic acid) with internal standard was transferred to each well. Besides the zero minute controls, mixtures containing the same components except the NADPH can also be prepared as the negative control. Verapamil was included as a positive control to verify assay performance. Plates were sealed, vortexed, and centrifuged at 4° C. for 15 minutes at 4000 rpm. The supernatant was transferred to fresh plates for LC/MS/MS analysis. The extent of metabolism was calculated as the disappearance of the test compound, compared to the 0-min time incubation. Initial rates were calculated for the compound concentration and used to determine t½ values.

[4] = Microsomal stability analysis, mouse; format: in vitro ADME; settings: pH 7.4; mouse liver microsomes, 1 μM test compound; read-out: Microsomal Stability t1/2
Experimental: as §2, §3

[5] = Microsomal stability analysis, human; format: in vitro ADME; settings: pH 7.4; human liver microsomes, 1 μM test compound; read-out: Microsomal Stability t1/2
Experimental: as §2, §3

PCSK9 [6] = target: T1, PCSK9; experiment: Biodesy direct binding measurement (second harmonic generation); settings: Biodesy Delta System
Excerpt: Direct binding can be measured using the commercially available Biodesy Delta System (BDS, http://www.biodesy.com/products/; accessed Aug. 1, 2018). The BDS is a laser-based approach that utilizes second harmonic generation from a labeled protein to detect ligand binding, the method of which is covered and described by U.S. Pat. Nos. 9,395,358 and 8,932,822, and has been commercialized by Biodesy Inc. (South San Francisco, Calif.).

T1 sequence (Q8NBP7 153-692): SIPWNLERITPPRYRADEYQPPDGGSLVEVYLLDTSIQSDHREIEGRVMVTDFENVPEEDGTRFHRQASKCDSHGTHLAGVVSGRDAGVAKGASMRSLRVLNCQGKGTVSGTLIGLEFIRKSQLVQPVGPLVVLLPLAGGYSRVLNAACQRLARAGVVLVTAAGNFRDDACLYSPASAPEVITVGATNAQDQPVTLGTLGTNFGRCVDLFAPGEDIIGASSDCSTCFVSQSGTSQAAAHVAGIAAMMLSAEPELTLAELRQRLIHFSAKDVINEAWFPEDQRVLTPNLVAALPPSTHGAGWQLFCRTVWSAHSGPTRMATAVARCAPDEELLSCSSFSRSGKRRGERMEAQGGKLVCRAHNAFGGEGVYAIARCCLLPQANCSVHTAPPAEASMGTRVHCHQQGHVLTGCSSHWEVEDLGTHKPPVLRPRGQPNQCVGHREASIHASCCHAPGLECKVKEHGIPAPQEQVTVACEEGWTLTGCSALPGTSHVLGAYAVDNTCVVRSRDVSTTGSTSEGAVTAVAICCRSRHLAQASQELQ

SMILES	EC50 (PCSK9 [1])	EC50 (PCSK9 [2])	half-life at 1 μM [3]	half-life at 1 μM [4]	half-life at 1 μM [5]	ΔSHG (PCSK9 [6])
FC(F)(F)c1cc(C2CCCN(CC3CCOC3)C2)ccc1-c1ccccc1 (stereo not shown) [1,027, 1-((tetrahydrofuran-3-yl)methyl)-3-(2-(trifluoromethyl)-[1,1′-biphenyl]-4-yl)piperidine]	> 1 µM	–	–	–	–	–
c1ccc(-c2ccc(C3CCCN(C4CCCC4)C3)cc2)cc1 (stereo not shown) [1,003, 3-([1,1′-biphenyl]-4-yl)-1-cyclopentylpiperidine]	–	1 to 5 µM	–	–	–	–
FC(F)(F)c1cccc(-c2ccc(C3CCCN(CC4CCCC4)C3)cc2)c1 (stereo not shown) [1,013, 1-(cyclopentylmethyl)-3-(3′-(trifluoromethyl)-[1,1′-biphenyl]-4-yl)piperidine]	> 1 µM	–	–	–	–	–
c1cc(-c2ccc(C3CCCN(CC4CCCC4)C3)cc2)ccn1 (stereo not shown) [1,005, 4-(4-(1-(cyclopentylmethyl)piperidin-3-yl)phenyl) pyridine]	–	1 to 5 µM	–	–	–	–
Fc1ccc(-c2ccc(C3CCCN(CC4CC4)C3)cc2)cc1 (stereo not shown) [Compound 1,001, 1-(cyclopropylmethyl)-3-(4′-fluoro-[1,1′-biphenyl]-4-yl)piperidine]	–	1 to 5 µM	10 min	25 min	> 120 min	> 10%
Cc1cc(-c2ccc(Cl)cc2)ccc1C1CCCN(CC2CCCC2)C1 (stereo not shown) [1,039, 3-(4′-chloro-3-methyl-[1,1′-biphenyl]-4-yl)-1-(cyclopentylmethyl) piperidine]	0.5 to 1 µM	–	–	–	–	–

Now from value to compound:

EC50 (PCSK9 [1])	EC50 (PCSK9 [2])	half-life at 1 μM [3]	half-life at 1 μM [4]	half-life at 1 μM [5]	ΔSHG (PCSK9 [6])	SMILES
0.5 to 1 µM	1 to 5 µM	13 min	28 min	22 min	–	c1ccc(-c2ccc(C3CCCN(CC4CCCC4)C3)cc2)cc1 (stereo not shown) [Compound 1,006, 3-([1,1′-biphenyl]-4-yl)-1-(cyclopentylmethyl)piperidine]
0.5 to 1 µM	–	–	–	–	–	Fc1cc(F)cc(-c2ccc(C3CCCN(CC4CCCC4)C3)cc2)c1 (stereo not shown) [1,029, 1-(cyclopentylmethyl)-3-(3′,5′-difluoro-[1,1′-biphenyl]-4-yl)piperidine]
< 0.5 µM	< 1 µM	17 min	61 min	> 120 min	–	FC(F)(F)c1ccc(-c2ccc(C3CCCN(CC4CCCC4)C3)cc2)cc1 (stereo not shown) [Compound 1,011, 1-(cyclopentylmethyl)-3-(4′-(trifluoromethyl)-[1,1′-biphenyl]-4-yl)piperidine]
< 0.5 µM	1 to 5 µM	13 min	67 min	86 min	–	Fc1ccc(-c2ccc(C3CCCN(CC4CCCC4)C3)cc2)cc1 (stereo not shown) [Compound 1,009, 1-(cyclopentylmethyl)-3-(4′-fluoro-[1,1′-biphenyl]-4-yl)piperidine]
0.5 to 1 µM	> 5 µM	–	–	–	–	Fc1ccc(-c2ccc(C3CCCN(Cc4ccccc4)C3)cc2)cc1 (stereo not shown) [Compound 1,035, 1-benzyl-3-(4′-fluoro-[1,1′-biphenyl]-4-yl)piperidine]
0.5 to 1 µM	–	–	–	–	–	Cc1cc(C2CCCN(C3CCCC3)C2)ccc1-c1ccc(Cl)cc1 (stereo not shown) [1,040, 3-(4′-chloro-2-methyl-[1,1′-biphenyl]-4-yl)-1-cyclopentylpiperidine]
< 0.5 µM	> 5 µM	15 min	76 min	> 120 min	–	Clc1ccc(-c2ccc(C3CCCN(CC4CCCC4)C3)cc2)cc1 (stereo not shown) [Compound 1,010, 3-(4′-chloro-[1,1′-biphenyl]-4-yl)-1-(cyclopentylmethyl)piperidine]

— patent publication US20220267269A1, “COMPOUNDS FOR THE MODULATION OF PROPROTEIN CONVERTASE SUBTILISIN/KEXIN TYPE 9 (PCSK9)” (SRX Cardio, LLC, priority 2019, published 2022)
